Data on 27 compounds can be found in US20230391779A1, “BICYCLIC COMPOUNDS, COMPOSITIONS AND USE THEREOF” (Betta Pharmaceuticals Co., Ltd., priority 2020, published 2023).

The subject of the assay is TEAD-YAP/TAZ interaction. The assay is described as follows: CTGF ELISA assay. The format is cell-based, human. Particulars: CTGF in culture supernatant of NCI-H2052 cells, 24 hours with compound. How it is done:
The detection of CTGF expression level can assessed the binding activity of TEAD-YAP/TAZ transcription factor, and the CTGF expression level was quantified by SimpleStep ELISA® kit (Abcam, ab261851).
NCI-H2052 cells (Purchased from ATCC) were cultured in RPMI 1640 medium, adding 10% FBS and 1% Penicillin-Streptomycin Solution and 1 mM Sodium pyruvate. The day before compounds treatment, the cultured cells were washed with PBS and digested with trypsin, then centrifuged and collected. Discarded the supernatant, the cells were resuspended in fresh complete medium. After cells counted, cells were seeded at 6500 cells/well in 96-well plates. And then cells were cultured overnight in incubator (37° C., 5% CO2).
After the cells were cultured overnight, discarded the culture supernatant, then washed with PBS solution, cells were incubated with 200 μl medium containing compounds in each well. The starting concentration was 10 μM and serial dilution in DMSO and medium were performed to achieve a final DMSO concentration of 0.5% (Final compounds concentration were 10000, 2500, 625, 156, 39.1, 9.77, 2.44, 0.61 nM, 0 nM (0.5% DMSO), The cells were then cultured in incubator (37° C., 5% CO2). Cultured for 24 hours, the cells were centrifuged at 1500 RPM at 4° C. for 5 minutes, and then 50 μl of culture supernatant were tested for CTGF ELISA assay.
The Human CTGF SimpleStep ELISA® Kit (Abcam, ab261851) employs an affinity tag labeled capture antibody and a reporter conjugated detector antibody which immunocapture the sample analyte in solution. This entire complex (capture antibody/analyte/detector antibody) is in turn immobilized via immunoaffinity of an anti-tag antibody coating the well. To perform the assay, samples or standards are added to the wells, followed by the antibody mix (capture antibody/detector antibody). After incubation, the wells are washed to remove unbound material. TMB Development Solution is added and during incubation is catalyzed by HRP, generating blue coloration. This reaction is then stopped by addition of Stop Solution completing any color change from blue to yellow. Signal is generated proportionally to the amount of bound analyte and the intensity is measured at 450 nm. Firstly, prepare all reagents, samples, and standards as instructed. Add 50 μl standard or sample to appropriate wells. Then add 50 μl of the Antibody Cocktail to each well. Seal the plate and incubate for 1 hour at room temperature on a plate shaker. Wash each well with Wash Buffer three times. Add 100 μl of TMB Development Solution to each well and incubate for 10 minutes in the dark on a plate shaker. Add 100 μl of Stop Solution to each well. Shake plate on a plate shaker for 1 minute to mix. Record the OD at 450 nm. Determine the concentration of the target protein in the sample by the standard curve.
EC50 value was determined by fitting the concentration response curves using GraphPad Prism software. The compounds of the present invention were tested for their capacity to inhibit TEAD-YAP/TAZ interaction according to the fitted curves of CTGF concentration response to compounds.
Turning to `C=CC(=O)N1CCC(n2nc(-c3ccc(C(F)(F)F)cc3)c3ccc(OC)cc32)C1` (stereo not drawn) [Compound 54, 1-(3-(6-methoxy-3-(4-(trifluoro-methyl)phenyl)-1H-indazol-1-yl)-pyrrolidin-1-yl)prop-2-en-1-one], the EC50 (in general, the concentration that produces a half-maximal response) came out at 32 nM.

`CC#CC(=O)N1CCC(n2nc(-c3ccc(C(F)(F)F)cc3)c3ccccc32)C1` (stereo not drawn) [Compound 55, 1-(3-(3-(4-(trifluoromethyl)phen-yl)-1H-indazol-1-yl)pyrrolidin-1-yl)but-2-yn-1-one]: the EC50 turned out to be 16 nM.

On to `C/C=C/C(=O)N1CCC(n2nc(-c3ccc(C(F)(F)F)cc3)c3ccccc32)C1` (stereo not drawn) [Compound 56, (E)-1-(3-(3-(4-(trifluoromethyl)-phenyl)-1H-indazol-1-yl)pyrrol-idin-1-yl)but-2-en-1-one], for which the EC50 came out at 70 nM.

Regarding `C#CC(=O)N1CCC(n2nc(-c3ccc(C(F)(F)F)cc3)c3ccccc32)C1` (stereo not drawn) [Compound 57, 1-(3-(3-(4-(trifluoromethyl)phen-yl)-1H-indazol-1-yl)pyrrolidin-1-yl)prop-2-yn-1-one], the EC50 was 82 nM.

For the compound `C=CC(=O)N1CCC(n2nc(-c3ccc(C(F)(F)F)cc3)c3cccc(F)c32)C1` (stereo not drawn) [Compound 70, 1-(3-(7-fluoro-3-(4-(trifluoro-methyl)phenyl)-1H-indazol-1-yl)-pyrrolidin-1-yl)prop-2-en-1-one], the EC50 turned out to be 34 nM.

Turning to `C=C(F)C(=O)N1CCC(n2nc(-c3ccc(C(F)(F)F)cc3)c3ncccc32)C1` (stereo not drawn) [Compound 71, 2-fluoro-1-(3-(3-(4-(trifluoro-methyl)phenyl)-1H-pyrazolo[4,3-b]pyridin-1-yl)pyrrolidin-1-yl)-prop-2-en-1-one], the EC50 was 12 nM.

On to `C=C(F)C(=O)N1CCC(n2nc(-c3ccc(C(F)(F)F)cc3)c3ncn(C)c(=O)c32)C1` (stereo not drawn) [Compound 77, 1-(1-(2-fluoroacryloyl)pyrrolidin-3-yl)-6-methyl-3-(4-(trifluoro-methyl)phenyl)-1,6-dihydro-7H-pyrazolo[4,3-d]pyrimidin-7-one], for which the EC50 was 6 nM.

Consider `C=CC(=O)N1CCC(n2nc(-c3ccc(C(F)(F)F)cc3)c3cccc(C(=O)OC)c32)C1` (stereo not drawn) [Compound 78, methyl 1-(1-acryloylpyrrolidin-3-yl)-3-(4-(trifluoromethyl)phenyl)-1H-indazole-7-carboxylate], for which the EC50 stood at 21 nM.

Take `C=CC(=O)N1CC(n2nc(-c3ccc(C(F)(F)F)cc3)c3ncn(C)c(=O)c32)C1` [Compound 79, 1-(1-acryloylazetidin-3-yl)-6-methyl-3-(4-(trifluoromethyl)-phenyl)-1,6-dihydro-7H-pyrazolo[4,3-d]pyrimidin-7-one]: the EC50 is 7.2 nM.

For the compound `C=CC(=O)N1CC(n2nc(-c3ccc(C(F)(F)F)cc3)c3ncccc32)C1` [Compound 82, 1-(3-(3-(4-(trifluoromethyl)phen-yl)-1H-pyrazolo[4,3-b]pyridin-1-yl)azetidin-1-yl)prop-2-en-1-one], the EC50 amounted to 5 nM.

As to `C=C(C)C(=O)N1CC(n2nc(-c3ccc(C(F)(F)F)cc3)c3ncccc32)C1` [Compound 87, 2-methyl-1-(3-(3-(4-(trifluoro-methyl)phenyl)-1H-pyrazolo[4,3-b]pyridin-1-yl)azetidin-1-yl)prop-2-en-1-one], the EC50 is 7 nM.

Regarding `C=CC(=O)N1CCC(n2nc(-c3ccc(C(F)(F)F)cc3)c3cc(OC)cnc32)C1` (stereo not drawn) [Compound 94, 1-(3-(5-methoxy-3-(4-(trifluoro-methyl)phenyl)-1H-pyrazolo[3,4-b]pyridin-1-yl)pyrrolidin-1-yl)-prop-2-en-1-one], the EC50 came out at 12 nM.

Take `C=C(F)C(=O)N1CCC(n2nc(-c3ccc(C(F)(F)F)cc3)c3cc(OC)cnc32)C1` (stereo not drawn) [Compound 95, 2-fluoro-1-(3-(5-methoxy-3-(4-(trifluoromethyl)phenyl)-1H-pyrazolo[3,4-b]pyridin-1-yl)-pyrrolidin-1-yl)prop-2-en-1-one]: the EC50 came to 30 nM.

Turning to `C=CC(=O)N1CCC(n2nc(-c3ccc(C(F)(F)F)cc3)c3cc(C)cnc32)C1` (stereo not drawn) [Compound 96, 1-(3-(5-methyl-3-(4-(trifluoro-methyl)phenyl)-1H-pyrazolo[3,4-b]pyridin-1-yl)pyrrolidin-1-yl)-prop-2-en-1-one], the EC50 came out at 4 nM.

For the compound `C=CC(=O)N1CCC(n2nc(-c3ccc(C(F)(F)F)nc3)c3cccc(C(=O)NC(C)C)c32)C1` (stereo not drawn) [Compound 98, 1-(1-acryloylpyrrolidin-3-yl)-N-isopropyl-3-(6-(trifluoromethyl)-pyridin-3-yl)-1H-indazole-7-carboxamide], the EC50 stood at 84 nM.

As to `C=CC(=O)N1CCC(n2nc(-c3ccc(C(F)(F)F)nc3)c3cccc(C(=O)NC4CC4)c32)C1` (stereo not drawn) [Compound 100, 1-(1-acryloylpyrrolidin-3-yl)-N-cyclopropyl-3-(6-(trifluorometh-yl)pyridin-3-yl)-1H-indazole-7-carboxamide], the EC50 stood at 50 nM.

As for `C=CC(=O)N1CCC(n2nc(-c3ccc(C(F)(F)F)nc3)c3cccc(C(=O)NC4COC4)c32)C1` (stereo not drawn) [Compound 101, 1-(1-acryloylpyrrolidin-3-yl)-N-(oxetan-3-yl)-3-(6-(trifluorometh-yl)pyridin-3-yl)-1H-indazole-7-carboxamide], the EC50 stood at 97 nM.

Consider `C=CC(=O)N1CCC(n2nc(-c3ccc(C(F)(F)F)nc3)c3cccc(C(=O)NC)c32)C1` (stereo not drawn) [Compound 102, 1-(1-acryloylpyrrolidin-3-yl)-N-methyl-3-(6-(trifluoromethyl)-pyridin-3-yl)-1H-indazole-7-carboxamide], for which the EC50 came out at 183 nM.

As for `C=CC(=O)N1CCC(n2nc(-c3ccc(C(F)(F)F)cc3)c3cccc(C(=O)N(C)C)c32)C1` (stereo not drawn) [Compound 103, 1-(1-acryloylpyrrolidin-3-yl)-N,N-dimethyl-3-(4-(trifluoromethyl)-phenyl)-1H-indazole-7-carbox-amide], the EC50 is 158 nM.

Turning to `C=CC(=O)N1CCC(n2nc(-c3ccc(C(F)(F)F)cc3)c3cccc(C(=O)NC4CCC(F)(F)CC4)c32)C1` (stereo not drawn) [Compound 111, 1-(1-acryloylpyrrolidin-3-yl)-N-(4,4-difluorocyclohexyl)-3-(4-(trifluoromethyl)phenyl)-1H-indazole-7-carboxamide], the EC50 was 84 nM.

With `C=CC(=O)N1CCC(n2nc(-c3ccc(C(F)(F)F)cc3)c3cccc(C(=O)N4CCC(F)(F)C4)c32)C1` (stereo not drawn) [Compound 112, 1-(3-(7-(3,3-difluoropyrrolidine-1-carbonyl)-3-(4-(trifluoro-methyl)phenyl)-1H-indazol-1-yl)-pyrrolidin-1-yl)prop-2-en-1-one], the EC50 was 86 nM.

Turning to `C=CC(=O)N1CC(n2nc(-c3ccc(C4CC4)cc3)c3ncccc32)C1` [Compound 120, 1-(3-(3-(4-cyclopropylphenyl)-1H-pyrazolo[4,3-b]pyridin-1-yl)-azetidin-1-yl)prop-2-en-1-one], the EC50 worked out at 36 nM.

Take `C=CC(=O)N1CC(n2nc(-c3ccc(C(F)(F)F)cc3)c3ccc(N(C)C)nc32)C1` [Compound 121, 1-(3-(6-(dimethylamino)-3-(4-(trifluoromethyl)phenyl)-1H-pyrazolo[3,4-b]pyridin-1-yl)-azetidin-1-yl)prop-2-en-1-one]: the concentration for a half-maximal effect (EC50) was 3 nM.

Turning to `C=C(F)C(=O)N1CC(n2nc(-c3ccc(C(F)(F)F)cc3)c3ccc(N(C)C)nc32)C1` [Compound 122, 1-(3-(6-(dimethylamino)-3-(4-(trifluoromethyl)phenyl)-1H-pyrazolo[3,4-b]pyridin-1-yl)-azetidin-1-yl)-2-fluoroprop-2-en-1-one], the EC50 came out at 24 nM.

Consider `C=CC(=O)N1CC(n2nc(-c3ccc(C(F)(F)F)nc3)c3cccnc32)C1` [Compound 123, 1-(3-(3-(6-(trifluoromethyl)pyr-idin-3-yl)-1H-pyrazolo[3,4-b]-pyridin-1-yl)azetidin-1-yl)prop-2-en-1-one], for which the EC50 stood at 7 nM.

As to `C=CC(=O)N1CCC2(CCC(n3nc(-c4ccc(C(F)(F)F)cc4)c4ncccc43)C2)C1` (stereo not drawn) [Compound 125, 1-(7-(3-(4-(trifluoromethyl)phen-yl)-1H-pyrazolo[4,3-b]pyridin-1-yl)-2-azaspiro[4.4]nonan-2-yl)-prop-2-en-1-one], the EC50 was determined as 75 nM.

With `C=CC(=O)N1CC(n2nc(-c3ccc(C(F)(F)F)cc3F)c3cccnc32)C1` [Compound 127, 1-(3-(3-(2-fluoro-4-(trifluoro-methyl)phenyl)-1H-pyrazolo[3,4-b]pyridin-1-yl)azetidin-1-yl)prop-2-en-1-one], the EC50 worked out at 8 nM.
